Reference: patent US9980943B2, “Methods of treating muscular dystrophy” (BOARD OF REGENTS OF THE NEVADA SYSTEM OF HIGHER EDUCATION, …, priority 2013, dated 2018)

What was measured:
Type in all cases: cell-based, mouse
[1] = test system: α7 integrin (LacZ reporter in α7+/LacZ myotubes); assay: Myotube α7 integrin FDG assay (Burkin assay in myotubes, 96-well); conditions: for Burkin Assay in Myotubes, value relative to DMSO: SU9516 analogs, 96-well, N=3-6
[2] = test system: β-galactosidase in CMV-LacZ C2C12 myoblasts; assay: CMV-LacZ secondary screen in C2C12 myoblasts (β-Gal stabilizing assay); conditions: for CMV-LACZ in Myoblasts, value relative to DMSO: SU9516 analogs, C2C12 CMV-LacZ, N=2; for CMV-LACZ in Myoblasts (β-galactosidase activity relative to DMSO): CMV-LacZ C2C12 myoblasts
Summary of the method: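 C2C12 myoblasts stably carrying a linearized CMV-driven LacZ construct, clone chosen by β-gal level in the myoblast FDG assay. Compounds tested in 96-well dose-response at 0.5, 1, 5, 10, 20 and 40 μM, N=2 replicates per point, to detect β-gal stabilization.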

[3] = test system: α7 integrin (LacZ reporter in α7βgal+/− myoblasts); assay: Myoblast α7+/LacZ integrin FDG assay (Burkin assay in myoblasts, 96-well); conditions: 96-well; for Burkin Assay in Myoblasts, value relative to DMSO: SU9516 analogs, N=3-6; for Burkin Assay in Myoblasts, signal relative to DMSO: α7+/LacZ myoblasts
[4] = test system: β-galactosidase in CMV-LacZ C2C12 myotubes; assay: CMV-LacZ secondary screen in C2C12 myotubes (β-Gal stabilizing assay); conditions: for CMV-LACZ in Myotubes, value relative to DMSO: SU9516 analogs, C2C12 CMV-LacZ, N=2; for CMV-LACZ in Myotubes, signal relative to DMSO: C2C12 CMV-LacZ myotubes, fold relative to DMSO
Summary of the method: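 β-gal stabilization was measured in C2C12 myoblasts or myotubes stably transfected with a CMV-driven LacZ construct, using the FDG β-gal assay. Compounds were tested in dose-response at 0.5, 1, 5, 10, 20 and 40 μM, with two replicates per point.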

## COc1ccc(C(=O)/C=C2/C(=O)Nc3ccccc32)cc1OC [MLS001163860-01]
[1]; 0.5 uM
  Burkin Assay in Myotubes, value relative to DMSO: 1.009
[1]; 1 uM
  Burkin Assay in Myotubes, value relative to DMSO: 0.9404
[1]; 5 uM
  Burkin Assay in Myotubes, value relative to DMSO: 0.9223
[1]; 10 uM
  Burkin Assay in Myotubes, value relative to DMSO: 1.138
[1]; 20 uM
  Burkin Assay in Myotubes, value relative to DMSO: 0.862
[1]; 40 uM
  Burkin Assay in Myotubes, value relative to DMSO: 1.209
[2]; 0.5 uM
  CMV-LACZ in Myoblasts, value relative to DMSO: 0.9350
[2]; 1 uM
  CMV-LACZ in Myoblasts, value relative to DMSO: 0.8230
[2]; 5 uM
  CMV-LACZ in Myoblasts, value relative to DMSO: 0.9610
[2]; 10 uM
  CMV-LACZ in Myoblasts, value relative to DMSO: 1.1417
[2]; 20 uM
  CMV-LACZ in Myoblasts, value relative to DMSO: 0.3425
[2]; 40 uM
  CMV-LACZ in Myoblasts, value relative to DMSO: 0.6488
[3]; 0.5 uM
  Burkin Assay in Myoblasts, value relative to DMSO: 0.9494
[3]; 1 uM
  Burkin Assay in Myoblasts, value relative to DMSO: 0.8457
[3]; 5 uM
  Burkin Assay in Myoblasts, value relative to DMSO: 0.5793
[3]; 10 uM
  Burkin Assay in Myoblasts, value relative to DMSO: 0.4922
[3]; 20 uM
  Burkin Assay in Myoblasts, value relative to DMSO: 0.1722
[3]; 40 uM
  Burkin Assay in Myoblasts, value relative to DMSO: 0.2347
[4]; 0.5 uM
  CMV-LACZ in Myotubes, value relative to DMSO: 1.0352
[4]; 1 uM
  CMV-LACZ in Myotubes, value relative to DMSO: 1.1562
[4]; 5 uM
  CMV-LACZ in Myotubes, value relative to DMSO: 1.1250
[4]; 10 uM
  CMV-LACZ in Myotubes, value relative to DMSO: 1.2757
[4]; 20 uM
  CMV-LACZ in Myotubes, value relative to DMSO: 1.3880
[4]; 40 uM
  CMV-LACZ in Myotubes, value relative to DMSO: 1.4490

## CC(C)(C)c1csc(NC(=O)c2cccnc2)n1 [MLS001164432-01]
[1]; 0.5 uM
  Burkin Assay in Myotubes, α7 integrin LacZ reporter signal relative to DMSO: 0.8982
[1]; 1 uM
  Burkin Assay in Myotubes, α7 integrin LacZ reporter signal relative to DMSO: 0.9509
[1]; 5 uM
  Burkin Assay in Myotubes, α7 integrin LacZ reporter signal relative to DMSO: 0.9878
[1]; 10 uM
  Burkin Assay in Myotubes, α7 integrin LacZ reporter signal relative to DMSO: 0.9985
[1]; 20 uM
  Burkin Assay in Myotubes, α7 integrin LacZ reporter signal relative to DMSO: 0.7121
[1]; 40 uM
  Burkin Assay in Myotubes, α7 integrin LacZ reporter signal relative to DMSO: 0.8464
[2]; 0.5 uM
  CMV-LACZ in Myoblasts (β-galactosidase activity relative to DMSO): 0.9600
[2]; 1 uM
  CMV-LACZ in Myoblasts (β-galactosidase activity relative to DMSO): 0.7842
[2]; 5 uM
  CMV-LACZ in Myoblasts (β-galactosidase activity relative to DMSO): 1.1387
[2]; 10 uM
  CMV-LACZ in Myoblasts (β-galactosidase activity relative to DMSO): 1.3183
[2]; 20 uM
  CMV-LACZ in Myoblasts (β-galactosidase activity relative to DMSO): 1.1059
[2]; 40 uM
  CMV-LACZ in Myoblasts (β-galactosidase activity relative to DMSO): 1.1289
[3]; 0.5 uM
  Burkin Assay in Myoblasts, signal relative to DMSO: 1.248
[3]; 1 uM
  Burkin Assay in Myoblasts, signal relative to DMSO: 1.1813
[3]; 5 uM
  Burkin Assay in Myoblasts, signal relative to DMSO: 1.091
[3]; 10 uM
  Burkin Assay in Myoblasts, signal relative to DMSO: 1.067
[3]; 20 uM
  Burkin Assay in Myoblasts, signal relative to DMSO: 0.7137
[3]; 40 uM
  Burkin Assay in Myoblasts, signal relative to DMSO: 0.6622
[4]; 0.5 uM
  CMV-LACZ in Myotubes, signal relative to DMSO: 0.9248
[4]; 1 uM
  CMV-LACZ in Myotubes, signal relative to DMSO: 1.3543
[4]; 5 uM
  CMV-LACZ in Myotubes, signal relative to DMSO: 0.9500
[4]; 10 uM
  CMV-LACZ in Myotubes, signal relative to DMSO: 1.2418
[4]; 20 uM
  CMV-LACZ in Myotubes, signal relative to DMSO: 1.1358
[4]; 40 uM
  CMV-LACZ in Myotubes, signal relative to DMSO: 1.1179

## O=C(O)C(Cc1ccc(O)cc1)N1C(=O)c2ccccc2C1=O (stereo not drawn) [MLS001165394-01]
[1]; 0.5 uM
  Burkin Assay in Myotubes, α7 integrin LacZ reporter signal relative to DMSO: 1.068
[1]; 1 uM
  Burkin Assay in Myotubes, α7 integrin LacZ reporter signal relative to DMSO: 1.135
[1]; 5 uM
  Burkin Assay in Myotubes, α7 integrin LacZ reporter signal relative to DMSO: 1.239
[1]; 10 uM
  Burkin Assay in Myotubes, α7 integrin LacZ reporter signal relative to DMSO: 0.9854
[1]; 20 uM
  Burkin Assay in Myotubes, α7 integrin LacZ reporter signal relative to DMSO: 1.188
[1]; 40 uM
  Burkin Assay in Myotubes, α7 integrin LacZ reporter signal relative to DMSO: 1.034
[2]; 0.5 uM
  CMV-LACZ in Myoblasts (β-galactosidase activity relative to DMSO): 1.0655
[2]; 1 uM
  CMV-LACZ in Myoblasts (β-galactosidase activity relative to DMSO): 1.0015
[2]; 5 uM
  CMV-LACZ in Myoblasts (β-galactosidase activity relative to DMSO): 1.0941
[2]; 10 uM
  CMV-LACZ in Myoblasts (β-galactosidase activity relative to DMSO): 0.9792
[2]; 20 uM
  CMV-LACZ in Myoblasts (β-galactosidase activity relative to DMSO): 0.8663
[2]; 40 uM
  CMV-LACZ in Myoblasts (β-galactosidase activity relative to DMSO): 0.9570
[3]; 0.5 uM
  Burkin Assay in Myoblasts, signal relative to DMSO: 1.149
[3]; 1 uM
  Burkin Assay in Myoblasts, signal relative to DMSO: 1.201
[3]; 5 uM
  Burkin Assay in Myoblasts, signal relative to DMSO: 1.159
[3]; 10 uM
  Burkin Assay in Myoblasts, signal relative to DMSO: 0.951
[3]; 20 uM
  Burkin Assay in Myoblasts, signal relative to DMSO: 1.035
[3]; 40 uM
  Burkin Assay in Myoblasts, signal relative to DMSO: 1.007
[4]; 0.5 uM
  CMV-LACZ in Myotubes, signal relative to DMSO: 0.9232
[4]; 1 uM
  CMV-LACZ in Myotubes, signal relative to DMSO: 1.1558
[4]; 5 uM
  CMV-LACZ in Myotubes, signal relative to DMSO: 0.9589
[4]; 10 uM
  CMV-LACZ in Myotubes, signal relative to DMSO: 0.9045
[4]; 20 uM
  CMV-LACZ in Myotubes, signal relative to DMSO: 1.0344
[4]; 40 uM
  CMV-LACZ in Myotubes, signal relative to DMSO: 0.9544
